Reference: ChEMBL document CHEMBL1201862, “PubChem BioAssay data set” (2004)
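Exposure lasted 48 hours, with cells grown in 96-well plates and compounds tested at five concentrations. At the GI50, growth is halved.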 Active and inactive are the calls of the source. Cut-off read from the data, not from the text of the source: active = GI50 up to about 1.1 µM and inactive = higher. Starred links: 1 amine or outer side, 2 acyl side, 3 side chain; linkers in the order of their positions; H or OH if unused. Residues, ends and D or L forms follow the SMILES beside them. *: point of attachment. γGlu = O=C(O)[CH](CCC(=O)[*:2])N[*:1]; NHOH = ON*

What was measured:
Assay in all cases: inhibition of tumour cell growth, NCI panel, 48 h
A498 = system: A498
CCRF-CEM = system: CCRF-CEM
DU-145 = system: DU-145
HCC 2998 = system: HCC 2998
HCT-15 = system: HCT-15
IGROV-1 = system: IGROV-1
MCF7 = system: MCF7
MDA-N = system: MDA-N
NCI-H23 = system: NCI-H23
OVCAR-3 = system: OVCAR-3
SF-268 = system: SF-268
SF-295 = system: SF-295
SK-MEL-28 = system: SK-MEL-28
SNB-19 = system: SNB-19
SNB-75 = system: SNB-75
SW-620 = system: SW-620
T47D = system: T47D
TK-10 = system: TK-10
U-251 = system: U-251
UO-31 = system: UO-31

SMILES	GI50 (A498)	GI50 (CCRF-CEM)	GI50 (DU-145)	GI50 (HCC 2998)	GI50 (HCT-15)	GI50 (IGROV-1)	GI50 (MCF7)	GI50 (MDA-N)	GI50 (NCI-H23)	GI50 (OVCAR-3)	GI50 (SF-268)	GI50 (SF-295)	GI50 (SK-MEL-28)	GI50 (SNB-19)	GI50 (SNB-75)	GI50 (SW-620)	GI50 (T47D)	GI50 (TK-10)	GI50 (U-251)	GI50 (UO-31)
CC(=O)O/C(=C1\C[C@H]2[C@@H]3CC=C4C[C@@H](OC(C)=O)CC[C@]4(C)[C@H]3CC[C@]2(C)C1=O)C(F)(F)F	19.3 µM (inactive)	1.95 µM (inactive)	9.95 µM (inactive)	6.31 µM (inactive)	4.03 µM	5.56 µM (inactive)	5.86 µM (inactive)	7.64 µM (inactive)	6.85 µM (inactive)	5.87 µM (inactive)	6.62 µM (inactive)	16.2 µM (inactive)	14.9 µM (inactive)	17.8 µM (inactive)	21.9 µM (inactive)	5.61 µM (inactive)	7.4 µM (inactive)	12.2 µM (inactive)	5.43 µM (inactive)	12.1 µM (inactive)
CCS(=O)(=O)CCn1c(=O)c2c(ncn2C)n(C)c1=O	> 100 µM (inactive)	> 100 µM (inactive)	> 100 µM (inactive)	> 100 µM (inactive)	> 100 µM	> 100 µM (inactive)	> 100 µM (inactive)	> 100 µM (inactive)	> 100 µM (inactive)	> 100 µM (inactive)	> 100 µM (inactive)	> 100 µM (inactive)	> 100 µM (inactive)	> 100 µM (inactive)	> 100 µM (inactive)	> 100 µM (inactive)	> 100 µM (inactive)	> 100 µM (inactive)	> 100 µM (inactive)	> 100 µM (inactive)
COc1ccc(C(NS(=O)(=O)c2ccc(C)cc2)c2c(C(CBr)OC)c3ccccc3n2S(=O)(=O)c2ccccc2)cc1OC (stereo not given)	> 100 µM (inactive)	89.7 µM (inactive)	> 100 µM (inactive)	> 100 µM (inactive)	> 100 µM	> 100 µM (inactive)	> 100 µM (inactive)	> 100 µM (inactive)	> 100 µM (inactive)	> 100 µM (inactive)	> 100 µM (inactive)	> 100 µM (inactive)	> 100 µM (inactive)	> 100 µM (inactive)	34.7 µM (inactive)	> 100 µM (inactive)	> 100 µM (inactive)	> 100 µM (inactive)	> 100 µM (inactive)	> 100 µM (inactive)
CCOC(=O)C1C2C1C1C(C(=O)OCC)C21 (stereo not given)	> 100 µM (inactive)	> 100 µM (inactive)	> 100 µM (inactive)	> 100 µM (inactive)	> 100 µM	> 100 µM (inactive)	51.3 µM (inactive)	> 100 µM (inactive)	> 100 µM (inactive)	> 100 µM (inactive)	> 100 µM (inactive)	> 100 µM (inactive)	> 100 µM (inactive)	> 100 µM (inactive)	> 100 µM (inactive)	> 100 µM (inactive)	49.2 µM (inactive)	> 100 µM (inactive)	> 100 µM (inactive)	> 100 µM (inactive)
CC[C@@]1(OC(=O)CCC(=O)O)C(=O)OCc2c1cc1n(c2=O)Cc2cc3ccccc3nc2-1	0.216 µM (active)	< 0.01 µM (active)	0.0271 µM (active)	0.458 µM (active)	0.472 µM	0.541 µM (active)	0.0287 µM (active)	1.09 µM (active)	0.0442 µM (active)	0.91 µM (active)	0.0395 µM (active)	0.0251 µM (active)	1.23 µM (inactive)	0.0519 µM (active)	0.104 µM (active)	0.15 µM (active)	0.065 µM (active)	3.65 µM (inactive)	0.0303 µM (active)	0.0583 µM (active)
O=c1ccs[nH]1	46.8 µM (inactive)	1.56 µM (inactive)	40.5 µM (inactive)	3.97 µM (inactive)	11.6 µM	24.2 µM (inactive)	8.36 µM (inactive)	17.5 µM (inactive)	3.8 µM (inactive)	8.17 µM (inactive)	14.2 µM (inactive)	6.17 µM (inactive)	25.1 µM (inactive)	32.1 µM (inactive)	16.9 µM (inactive)	4.06 µM (inactive)	3.81 µM (inactive)	13.8 µM (inactive)	7.21 µM (inactive)	7.21 µM (inactive)
C/C(=C\CBr)CCC(Br)C(C)(C)Br (stereo not given)	> 100 µM (inactive)	> 100 µM (inactive)	> 100 µM (inactive)	> 100 µM (inactive)	> 100 µM	> 100 µM (inactive)	> 100 µM (inactive)	> 100 µM (inactive)	> 100 µM (inactive)	> 100 µM (inactive)	> 100 µM (inactive)	> 100 µM (inactive)	> 100 µM (inactive)	> 100 µM (inactive)	> 91.8 µM (inactive)	> 100 µM (inactive)	> 100 µM (inactive)	> 100 µM (inactive)	> 100 µM (inactive)	> 100 µM (inactive)
CCOC(=O)CNC(=O)C(CCC(=O)NO)NC(=O)CCC(N)C(=O)O (stereo not given) (γGlu-Glu(NHOH)-Gly-OEt; configuration not given here)	> 100 µM (inactive)	> 100 µM (inactive)	> 100 µM (inactive)	> 100 µM (inactive)	> 100 µM	> 100 µM (inactive)	> 100 µM (inactive)	> 100 µM (inactive)	> 100 µM (inactive)	> 100 µM (inactive)	> 100 µM (inactive)	> 100 µM (inactive)	> 100 µM (inactive)	> 100 µM (inactive)	> 100 µM (inactive)	> 100 µM (inactive)	> 100 µM (inactive)	> 100 µM (inactive)	> 100 µM (inactive)	> 100 µM (inactive)
CC1(O)CC2(O)C=CC3=C(C(=O)c4cccc(O)c4C3=O)C2(O)C(=O)C1O (stereo not given)	7.26 µM (inactive)	0.206 µM (active)	18.4 µM (inactive)	4.09 µM (inactive)	1.28 µM	4.6 µM (inactive)	0.624 µM (active)	1.78 µM (inactive)	2.92 µM (inactive)	2.28 µM (inactive)	5.46 µM (inactive)	13.6 µM (inactive)	1.69 µM (inactive)	16.6 µM (inactive)	8.38 µM (inactive)	0.75 µM (active)	1.64 µM (inactive)	1.73 µM (inactive)	4.04 µM (inactive)	1.99 µM (inactive)
COc1cc(C2c3cc4c(cc3[C@@H](Nc3cccc(O)c3)C3COC(=O)[C@H]23)OCO4)cc(OC)c1O (stereo not given in full)	1.62 µM (inactive)	0.425 µM (active)	0.197 µM (active)	3.58 µM (inactive)	1.93 µM	3.98 µM (inactive)	0.46 µM (active)	2.7 µM (inactive)	1.05 µM (active)	4.04 µM (inactive)	1.89 µM (inactive)	1.09 µM (active)	2.81 µM (inactive)	3.7 µM (inactive)	2.38 µM (inactive)	2.8 µM (inactive)	2.24 µM (inactive)	4.51 µM (inactive)	2.04 µM (inactive)	1.57 µM (inactive)
O=C1N/C(=N/N=C/C(O)C(O)C(O)C(O)CO)N/C1=C\c1c[nH]c2ccccc12 (stereo not given)	38.3 µM (inactive)	39.1 µM (inactive)	> 100 µM (inactive)	> 100 µM (inactive)	> 100 µM	> 100 µM (inactive)	> 100 µM (inactive)	> 100 µM (inactive)	> 100 µM (inactive)	62.8 µM (inactive)	> 100 µM (inactive)	> 100 µM (inactive)	> 100 µM (inactive)	38.4 µM (inactive)	> 100 µM (inactive)	> 100 µM (inactive)	97.7 µM (inactive)	> 100 µM (inactive)	69.3 µM (inactive)	–
CCOC(=O)/C=C/C(=O)O/C=C/[N+](=O)[O-]	> 100 µM (inactive)	4.54 µM (inactive)	> 100 µM (inactive)	> 100 µM (inactive)	> 100 µM	> 100 µM (inactive)	> 100 µM (inactive)	> 100 µM (inactive)	> 100 µM (inactive)	> 100 µM (inactive)	> 100 µM (inactive)	> 100 µM (inactive)	–	–	> 100 µM (inactive)	> 100 µM (inactive)	> 100 µM (inactive)	> 100 µM (inactive)	> 100 µM (inactive)	> 100 µM (inactive)
CC(=O)Nc1nc(Cl)cc(NCC2(CO)CCC2)n1	> 100 µM (inactive)	> 100 µM (inactive)	> 100 µM (inactive)	> 100 µM (inactive)	> 100 µM	> 100 µM (inactive)	> 100 µM (inactive)	> 100 µM (inactive)	> 100 µM (inactive)	> 100 µM (inactive)	> 100 µM (inactive)	> 100 µM (inactive)	> 100 µM (inactive)	> 100 µM (inactive)	> 100 µM (inactive)	> 100 µM (inactive)	> 100 µM (inactive)	–	> 100 µM (inactive)	> 100 µM (inactive)
CCOC(=O)C(Cc1ccc(OC(=O)c2ccc(OC)cc2)cc1)NC(=O)C(F)(F)F (stereo not given)	> 100 µM (inactive)	39.5 µM (inactive)	> 100 µM (inactive)	> 100 µM (inactive)	> 100 µM	45.3 µM (inactive)	> 100 µM (inactive)	> 100 µM (inactive)	45.2 µM (inactive)	> 100 µM (inactive)	35.6 µM (inactive)	80.7 µM (inactive)	–	> 100 µM (inactive)	20.7 µM (inactive)	> 100 µM (inactive)	> 100 µM (inactive)	> 100 µM (inactive)	69.3 µM (inactive)	> 100 µM (inactive)
